Legend:
Assay type in all cases: in vivo, mouse
HBV = assay: Long-term use and withdrawal of HBV antiviral drugs in hybrid mice (HBV transgenic x miR-122 knock-out), viral load; conditions: six-month-old hybrid mice, ETV 5 or 1 mg/kg; for amount of virus after one month of medication (M1) / amount of virus after one month of withdrawal (M2): TDF 135 or 50 mg/kg
Description: Six-month-old hybrid mice were fed with different doses of TDF (135 or 50 mg/kg-day) and […] (5 or 1 mg/kg-day).
(Wu & Wu et al. Gastroenterology 2014). At present, nucleoside analogues that are more commonly used clinically are tenofovir (TDF) and entecavir (ETV), which have strong antiviral efficacy and rarely have drug resistance. Reactivation of the virus and recurrence of hepatitis occurred more frequently and early after withdrawal of tenofovir (TDF) than after withdrawal of entecavir (ETV). Withdrawal of tenofovir (TDF) may sometimes cause liver failure for some unknown reason. The effect of long-term use and withdrawal of HBV antiviral drug tenofovir (TDF) and entecavir (ETV) on the amount of virus was compared. Six-month-old hybrid mice were fed with different doses of TDF (135 or 50 mg/kg) and ETV (5 or 1 mg/kg). […] Studies of efficacy and side effects of long-term use of tenofovir (TDF) or entecavir (ETV) on reducing hepatitis by using the hybrid mice are going on, and valuable clinical data will be provided.

[1] = tested on: wild-type hepatitis B virus; assay: Antiviral drug treatment of HBV transgenic mice with wild-type HBV genome, amount of virus in serum
Source text: (§1) According to the present invention, the drug resistant HBV genome is resistant to an antiviral nucleoside analogue, such as adefovir or lamivudine.
(§2) The upper and lower limits of the rectangles in the figure are quartiles, and the horizontal lines within the rectangles indicate the median. Mann-Whitney U test was used for statistical analysis, and p=0.0093, showing the significant differences.

[2] = tested on: drug resistant HBV genome; assay: Antiviral drug treatment of HBV transgenic mice with drug resistant HBV genome, amount of virus in serum; conditions: compared with wild-type HBV genome mice
Source text: as §1, §2

| Structure (SMILES) | amount of virus after one month of medication (M1) (HBV) | amount of virus after one month of withdrawal (M2) (HBV) | amount of virus after 3 months of withdrawal (M4) (HBV) | amount of virus after 6 months of withdrawal (M7) (HBV) | amount of serum virus after treatment with antiviral drug [1] | amount of serum virus after treatment with antiviral drug [2] |
| --- | --- | --- | --- | --- | --- | --- |
| CC(C)OC(=O)OCOP(=O)(CO[C@H](C)Cn1cnc2c(N)ncnc21)OCOC(=O)OC(C)C.O=C(O)/C=C/C(=O)O [TDF, tenofovir] | reduce the amount of virus to a minimum | quickly rose to the level before medication (M0) |  |  |  |  |
| C=C1[C@H](CO)[C@@H](O)C[C@@H]1n1cnc2c(=O)[nH]c(N)nc21 [ETV, entecavir] | reduce the amount of virus to a minimum | maintained at the lower level | 1.0E+5 to 1.0E+6 | rose to the level before the medication (M0) |  |  |
| Nc1ncnc2c1ncn2CCOCP(=O)(O)O [adefovir] |  |  |  |  | decreased by more than a thousand times | decreased much less |

Reference: US12349665B2, “Animal model for hepatocellular carcinoma and uses thereof” (TAIPEI VETERANS GENERAL HOSPITAL, priority 2019, dated 2025)
